Tests used:
[1] = biological target: T1, Human PDGFRα, cytoplasmic domain (GST-PDGFRα) (Homo sapiens, UniProt P16234); assay: Human PDGFRα biochemical inhibition assay (off-chip Mobility Shift Assay)
T1 construct: made in house

[2] = biological target: T2, Human PDGFRβ, cytoplasmic domain (GST-PDGFRβ) (Homo sapiens, UniProt P09619); assay: Human PDGFRβ biochemical inhibition assay (off-chip Mobility Shift Assay)
T2 construct: made in house
Method in brief: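 GST-tagged cytoplasmic domain (aa 557-1106) from baculovirus was incubated 1 h at room temperature with compound, CSKtide, ATP at Km and Mg²⁺ in HEPES buffer, pH 7.5. Phosphorylated and unphosphorylated peptide were separated by off-chip mobility shift, and the product ratio P/(P+S) gave percent inhibition.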

T1 sequence (P16234 550-1089 T674I): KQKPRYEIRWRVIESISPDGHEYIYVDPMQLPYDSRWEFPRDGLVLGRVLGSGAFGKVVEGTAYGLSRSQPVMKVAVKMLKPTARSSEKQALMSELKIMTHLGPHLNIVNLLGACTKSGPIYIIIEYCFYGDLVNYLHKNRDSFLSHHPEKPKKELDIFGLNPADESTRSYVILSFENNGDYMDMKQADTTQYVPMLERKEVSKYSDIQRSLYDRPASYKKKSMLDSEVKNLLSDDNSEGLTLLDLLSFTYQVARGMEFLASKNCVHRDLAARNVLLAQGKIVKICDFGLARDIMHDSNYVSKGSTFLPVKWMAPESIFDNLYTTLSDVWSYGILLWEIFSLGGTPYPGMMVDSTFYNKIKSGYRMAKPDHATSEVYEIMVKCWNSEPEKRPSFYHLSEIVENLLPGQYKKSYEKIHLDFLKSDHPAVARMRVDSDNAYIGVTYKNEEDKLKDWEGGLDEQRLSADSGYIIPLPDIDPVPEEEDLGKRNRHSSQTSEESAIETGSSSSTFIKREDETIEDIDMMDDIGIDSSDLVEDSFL
T2 sequence (P09619 with tags, fused parts or gaps): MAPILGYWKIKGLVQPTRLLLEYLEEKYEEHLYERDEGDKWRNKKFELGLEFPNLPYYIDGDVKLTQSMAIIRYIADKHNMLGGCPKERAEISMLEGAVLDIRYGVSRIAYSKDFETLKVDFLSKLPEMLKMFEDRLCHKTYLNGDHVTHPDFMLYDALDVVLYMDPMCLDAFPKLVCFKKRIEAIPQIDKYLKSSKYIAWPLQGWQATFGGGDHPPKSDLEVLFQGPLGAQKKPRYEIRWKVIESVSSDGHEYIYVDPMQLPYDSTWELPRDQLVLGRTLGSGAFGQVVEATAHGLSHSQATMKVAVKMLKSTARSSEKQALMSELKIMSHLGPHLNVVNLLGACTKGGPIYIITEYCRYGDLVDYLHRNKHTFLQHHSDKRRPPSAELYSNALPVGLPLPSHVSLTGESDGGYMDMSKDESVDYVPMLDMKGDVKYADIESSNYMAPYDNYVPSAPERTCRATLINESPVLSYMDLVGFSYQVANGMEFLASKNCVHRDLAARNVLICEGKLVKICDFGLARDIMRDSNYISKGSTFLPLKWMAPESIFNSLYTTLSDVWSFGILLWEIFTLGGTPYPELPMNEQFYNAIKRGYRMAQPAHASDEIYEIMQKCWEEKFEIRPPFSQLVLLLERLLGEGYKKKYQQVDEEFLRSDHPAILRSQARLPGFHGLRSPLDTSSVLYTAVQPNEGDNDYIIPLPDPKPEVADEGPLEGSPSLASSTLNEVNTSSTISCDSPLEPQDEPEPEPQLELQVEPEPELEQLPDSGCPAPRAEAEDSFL

SMILES	IC50 [1]	IC50 [2]
CCn1cc2ncc(N[C@@H](C)c3cccc(NC(=O)c4ccc(OC)nc4)c3)nc2n1 [Compound 285, (S)-N-(3-(1-((2-ethyl-2H-pyrazolo[3,4-b]pyrazin-6-yl)amino)ethyl)phenyl)-6-methoxynicotinamide]	0.3 to 1 µM	≥ 1 µM
CCn1cc(C(=O)Nc2cccc([C@H](C)Nc3cnc4cn(CC)nc4n3)c2)cn1 [Compound 297, (S)-1-ethyl-N-(3-(1-((2-ethyl-2H-pyrazolo[3,4-b]pyrazin-6-yl)amino)ethyl)phenyl)-1H-pyrazole-4-carboxamide]	0.3 to 1 µM	0.3 to 1 µM
CCOc1ncc(C(=O)Nc2cccc([C@H](C)Nc3cnc4cn(CC)nc4n3)c2)cc1C [Compound 314, (S)-6-ethoxyN-(3-(1-((2-ethyl-2H-pyrazolo[3,4-b]pyrazin-6-yl)amino)ethyl)phenyl)-5-methylnicotinamide]	< 0.3 µM	< 0.3 µM
Cc1c[nH]c2ncc(N[C@@H](C)c3cccc(NC(=O)c4cncc(C(F)F)c4)c3)nc12 [Compound 556, (S)-5-(difluoromethyl)-N-(3-(1-((7-methyl-5H-pyrrolo[2,3-6]pyrazin-2-yl)amino)ethyl)phenyl)nicotinamide]	< 0.3 µM	< 0.3 µM
CCn1cc2ncc(N[C@@H](C)c3cccc(NC(=O)Cc4ccc5c(n4)CCC5)c3)nc2n1 [Compound 718, (S)-2-(6,7-dihydro-5H-cyclopenta[b]pyridin-2-yl)-N-(3-(1-((2-ethyl-2H-pyrazolo[3,4-b]pyrazin-6-yl)amino)ethyl)phenyl)acetamide]	< 0.3 µM	≥ 1 µM
CCn1cc2ncc(N[C@@H](C)c3cc(NC(=O)Cc4ccc(OC)cn4)ccc3C)nc2n1 [Compound 698, (S)-N-(3-(1-((2-ethyl-2H-pyrazolo[3,4-b]pyrazin-6-yl)amino)ethyl)-4-methylphenyl)-2-(5-methoxypyridin-2-yl) acetamide]	< 0.3 µM	0.3 to 1 µM
COc1ccc(Cn2ccc3ncc(N[C@@H](C)c4cccc(NC(=O)c5cncc(C)c5)c4)nc32)cc1OC [Compound 88, (S)-N-(3-(1-((5-(3,4-dimethoxybenzyl)-5H-pyrrolo [2,3-b]pyrazin-3-yl)amino)ethyl)phenyl)-5-methylnicotinamide]	< 0.3 µM	≥ 1 µM
CCn1cc2ncc(N[C@@H](C)c3cccc(NC(=O)c4cnc(-n5ccnc5)c(C)c4)c3)nc2n1 [Compound 334, (S)-N-(3-(1-((2-ethyl-2H-pyrazolo[3,4-b]pyrazin-6-yl)amino)ethyl)phenyl)-6-(1H-imidazol-1-yl)-5-methylnicotinamide]	< 0.3 µM	< 0.3 µM
CCn1cc2ncc(N[C@@H](C)c3cccc(NC(=O)c4ccn(C(C)C)n4)c3)nc2n1 [Compound 305, (S)-N-(3-(1-((2-ethyl-2H-pyrazolo[3,4-b]pyrazin-6-yl)amino)ethyl)phenyl)-1-isopropyl-1H-pyrazole-3-carboxamide]	< 0.3 µM	0.3 to 1 µM
CCn1cc2ncc(N[C@@H](C)c3cccc(NC(=O)c4ccc(C#N)cc4)c3)nc2n1 [Compound 346, (S)-4-cyano-N-(3-(1-((2-ethyl-2H-pyrazolo[3,4-b]pyrazin-6-yl)amino)ethyl)phenyl)benzamide]	0.3 to 1 µM	0.3 to 1 µM
CC(=O)Oc1ccc(C(=O)Nc2cccc([C@H](C)Nc3cnc4cnn(C)c4n3)c2)cc1 [Compound 214, (S)-4-((3-(1-((1-methyl-1H-pyrazolo[3,4-b]pyrazin-6-yl)amino)ethyl)phenyl)carbamoyl) phenyl acetate]	< 0.3 µM	< 0.3 µM
CCn1cc2ncc(N[C@@H](C)c3cccc(NC(=O)Cc4cc(Cl)ccn4)c3)nc2n1 [Compound 676, (S)-2-(4-chloropyridin-2-yl)-N-(3-(1-((2-ethyl-2H-pyrazolo[3,4-b]pyrazin-6-yl)amino)ethyl)phenyl)acetamide]	0.3 to 1 µM	≥ 1 µM
Cc1cc(C(=O)Nc2cccc([C@H](C)Nc3cnc4cnn(C)c4n3)c2)ccc1C(=O)OCCO [Compound 257, 2-hydroxyethyl (S)-2-methyl-4-((3-(1-((1-methyl-1H-pyrazolo[3,4-b]pyrazin-6-yl)amino)ethyl)phenyl)carbamoyl) benzoate]	< 0.3 µM	< 0.3 µM
Cc1cncc(C(=O)Nc2cccc([C@H](C)Nc3cnc4c(c3)OCCN4)c2)c1 [Compound 45]	0.3 to 1 µM	≥ 1 µM
Cc1cncc(C(=O)Nc2cccc([C@H](C)Nc3cnc4[nH]cc(-c5cncnc5)c4n3)c2)c1 [Compound 593, (S)-5-methyl-N-(3-(1-((7-(pyrimidin-5-yl)-5H-pyrrolo [2,3-b]pyrazin-2-yl)amino)ethyl)phenyl)nicotinamide]	< 0.3 µM	< 0.3 µM
CCn1cc2ncc(N[C@@H](C)c3cccc(NC(=O)Cc4cc(F)cc(CN5CCN(C)CC5)c4)c3)nc2n1 [Compound 646, (S)-N-(3-(1-((2-ethyl-2H-pyrazolo[3,4-b]pyrazin-6-yl)amino)ethyl)phenyl)-2-(3-fluoro-5-((4-methylpiperazin-1-yl)methyl)phenyl)acetamide]	< 0.3 µM	0.3 to 1 µM
CCn1cc2ncc(N[C@@H](C)c3cc(NC(=O)Cc4ccc(F)cc4)ccc3C)nc2n1 [Compound 701, (S)-N-(3-(1-((2-ethyl-2H-pyrazolo[3,4-b]pyrazin-6-yl)amino)ethyl)-4-methylphenyl)-2-(4-fluorophenyl)acetamide]	< 0.3 µM	< 0.3 µM
CNc1ccc(C(=O)Nc2cccc([C@H](C)Nc3cnc4cnn(C)c4n3)c2)cn1 [Compound 120, (S)-N-(3-(1-((1-methyl-1H-pyrazolo[3,4-b]pyrazin-6-yl)amino)ethyl)phenyl)-6-(methylamino)nicotinamide]	< 0.3 µM	0.3 to 1 µM
CCc1cc(C(=O)Nc2cccc([C@H](C)Nc3cnc4cn(CC)nc4n3)c2)ccc1CN1CC2(COC2)C1 [Compound 499, (S)-4-((2-oxa-6-azaspiro[3,3]heptan-6-yl)methyl)-3-ethyl-N-(3-(1-((2-ethyl-2H-pyrazolo[3,4-b]pyrazin-6-yl)amino)ethyl)phenyl)benzamide]	< 0.3 µM	< 0.3 µM

Continued, values first:

IC50 [1]	IC50 [2]	SMILES
< 0.3 µM	< 0.3 µM	Cc1n[nH]c2ncc(N[C@@H](C)c3cccc(NC(=O)c4ccc(C5CC5)nc4)c3)nc12 [Compound 535, (S)-6-cyclopropyl-N-(3-(1-((3-methyl-1H-pyrazolo[3,4-b]pyrazin-5-yl)amino)ethyl)phenyl)nicotinamide]
< 0.3 µM	< 0.3 µM	CCn1cc2ncc(N[C@@H](C)c3cc(NC(=O)c4ccc(OC5CCN(C)CC5)c(C(F)(F)F)c4)ccc3F)nc2n1 [Compound 431, (S)-N-(3-(1-((2-ethyl-2H-pyrazolo[3,4-b]pyrazin-6-yl)amino)ethyl)-4-fluorophenyl)-4-((1-methylpiperidin-4-yl)oxy)-3-(trifluoromethyl)benzamide]
< 0.3 µM	0.3 to 1 µM	CCn1cc2ncc(N[C@@H](C)c3cccc(NC(=O)c4cncc(OC)c4)c3)nc2n1 [Compound 279, (S)-N-(3-(1-((2-ethyl-2H-pyrazolo[3,4-b]pyrazin-6-yl)amino)ethyl)phenyl)-5-methoxynicotinamide]
< 0.3 µM	≥ 1 µM	C[C@H](Nc1cnc2cnn(C)c2n1)c1cccc(NC(=O)c2ccc(C#N)nc2)c1 [Compound 117, (S)-6-cyano-N-(3-(1-((1-methyl-1H-pyrazolo[3,4-b]pyrazin-6-yl)amino)ethyl)phenyl) nicotinamide]
< 0.3 µM	< 0.3 µM	Cc1cc(C(=O)Nc2cccc([C@H](C)Nc3cnc4cnn(C)c4n3)c2)ccc1CN1CCSCC1 [Compound 237, (S)-3-methyl-N-(3-(1-((1-methyl-1H-pyrazolo[3,4-b]pyrazin-6-yl)amino)ethyl)phenyl)-4-(thiomorpholinomethyl) benzamide]
< 0.3 µM	< 0.3 µM	CCn1cc(C(=O)Nc2cccc([C@H](C)Nc3cnc4[nH]nc(C)c4n3)c2)cn1 [Compound 545, (S)-1-ethyl-N-(3-(1-((3-methyl-1H-pyrazolo[3,4-b]pyrazin-5-yl)amino)ethyl)phenyl)-1H-pyrazole-4-carboxamide]
< 0.3 µM	< 0.3 µM	CCn1cc2ncc(N[C@@H](C)c3cccc(NC(=O)c4cnc(N(C)C)s4)c3)nc2n1 [Compound 340, (S)-2-(dimethylamino)-N-(3-(1-((2-ethyl-2H-pyrazolo[3,4-b]pyrazin-6-yl)amino)ethyl)phenyl)thiazole-5-carboxamide]
< 0.3 µM	0.3 to 1 µM	CCn1cc2ncc(N[C@@H](C)c3cc(NC(=O)Cc4ccc(F)cn4)ccc3F)nc2n1 [Compound 649, (S)-N-(3-(1-((2-ethyl-2H-pyrazolo[3,4-b]pyrazin-6-yl)amino)ethyl)-4-fluorophenyl)-2-(5-fluoropyridin-2-yl)acetamide]
< 0.3 µM	≥ 1 µM	Cc1cc(C(=O)Nc2cccc([C@H](C)Nc3cnc4cnn(C)c4n3)c2)cnc1O [Compound 253, (S)-6-hydroxy-5-methyl-N-(3-(1-((1-methyl-1H-pyrazolo[3,4-b]pyrazin-6-yl)amino)ethyl)phenyl)nicotinamide]
< 0.3 µM	< 0.3 µM	COc1ncc(C(=O)Nc2cccc([C@H](C)Nc3cnc4cnn(C)c4n3)c2)cc1C [Compound 128, (S)-6-methoxy-5-methyl-N-(3-(1-((1-methyl-1H-pyrazolo[3,4-b]pyrazin-6-yl)amino)ethyl)phenyl)nicotinamide]
< 0.3 µM	< 0.3 µM	Cc1n[nH]c2ncc(N[C@@H](C)c3cccc(NC(=O)c4cncc(C(F)F)c4)c3)nc12 [Compound 532, (S)-5-(difluoromethyl)-N-(3-(1-((3-methyl-1H-pyrazolo[3,4-b]pyrazin-5-yl)amino)ethyl)phenyl)nicotinamide]

— patent publication US20230102554A1 (GB002, INC., priority 2019, published 2023)
